# Test results from PubChem BioAssay (NCI).
#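 Dose response: 5 concentrations. Exposure: 48 h. Format: 96-well plates. Endpoint: linear interpolation; highest concentration if not reached. At the TGI there is no net growth.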
# Key:
# Assay in all cases: growth of human tumour cells (NCI), 48 h
# [1] = test system: SNB-19 CNS
# [2] = test system: OVCAR-3 ovarian
# [3] = test system: SK-MEL-2 melanoma
# [4] = test system: M14 melanoma
# [5] = test system: EKVX NSCLC
# [6] = test system: NCI-H522 lung
# [7] = test system: HL-60(TB) leukemia
# [8] = test system: SK-OV-3 ovarian
# [9] = test system: MDA-N
# [10] = test system: DU-145 prostate
# [11] = test system: T-47D breast
# [12] = test system: CCRF-CEM leukemia
# [13] = test system: HOP-62 NSCLC
# [14] = test system: RXF 393 renal
# [15] = test system: UO-31 renal
# [16] = test system: MDA-MB-231 breast
# [17] = test system: NCI-H460 lung
# [18] = test system: MALME-3M melanoma
# [19] = test system: SK-MEL-5 melanoma
# [20] = test system: OVCAR-5 ovarian
# [21] = test system: SF-295 CNS
# [22] = test system: BT-549 breast
# [23] = test system: CAKI-1 renal
# [24] = test system: U251 CNS
# [25] = test system: NCI-H226 lung
# [26] = test system: HOP-92 NSCLC
# [27] = test system: SR leukemia
# [28] = test system: MCF7 breast
# [29] = test system: COLO 205 colon
# [30] = test system: HT29 colon
# [31] = test system: MOLT-4 leukemia
# [32] = test system: UACC-62 melanoma
# [33] = test system: SW-620 colon
# [34] = test system: PC-3 prostate
# [35] = test system: SK-MEL-28 melanoma
# [36] = test system: LOX IMVI melanoma
# [37] = test system: A549 NSCLC
# [38] = test system: NCI-H23 lung
# [39] = test system: MDA-MB-435
# [40] = test system: A498 renal
# [41] = test system: SF-539 CNS
# [42] = test system: RPMI-8226 leukemia
# [43] = test system: HS 578T breast
# [44] = test system: NCI/ADR-RES ovarian
# [45] = test system: ACHN renal
# [46] = test system: 786-0 renal
# [47] = test system: OVCAR-8 ovarian
# [48] = test system: UACC-257 melanoma
# [49] = test system: HCT-15 colon
# [50] = test system: SNB-75 CNS
# [51] = test system: IGROV1 ovarian
# [52] = test system: SF-268 CNS
# [53] = test system: KM12 colon
# [54] = test system: K-562 leukemia
# [55] = test system: TK-10 renal
# [56] = test system: HCT-116 colon
# [57] = test system: OVCAR-4 ovarian
# [58] = test system: HCC-2998 colon
# [59] = test system: SN12C renal
compound,measurement,setting,value
CCCN(CCC)C(=S)N/N=C(/C)c1ccccc1O,TGI,[1],> 100 µM
same,TGI,[2],14.9 µM
same,TGI,[3],60.9 µM
same,TGI,[4],18.8 µM
same,TGI,[5],> 68.9 µM
same,TGI,[6],25.5 µM
same,TGI,[7],> 29.5 µM
same,TGI,[8],> 75.5 µM
same,TGI,[9],> 100 µM
same,TGI,[10],> 100 µM
same,TGI,[11],> 28.9 µM
same,TGI,[12],> 33.9 µM
same,TGI,[13],52.8 µM
same,TGI,[14],> 87.1 µM
same,TGI,[15],> 100 µM
same,TGI,[16],52.8 µM
same,TGI,[17],13.3 µM
same,TGI,[18],28.8 µM
same,TGI,[19],> 41.2 µM
same,TGI,[20],> 62.9 µM
same,TGI,[21],> 100 µM
same,TGI,[22],47.9 µM
same,TGI,[23],> 100 µM
same,TGI,[24],> 57.8 µM
same,TGI,[25],> 41 µM
same,TGI,[26],> 76.8 µM
same,TGI,[27],8.92 µM
same,TGI,[28],> 43.6 µM
same,TGI,[29],21.8 µM
same,TGI,[30],> 100 µM
same,TGI,[31],> 36.9 µM
same,TGI,[32],15.1 µM
same,TGI,[33],> 100 µM
same,TGI,[34],> 100 µM
same,TGI,[35],> 100 µM
same,TGI,[36],> 100 µM
same,TGI,[37],> 100 µM
same,TGI,[38],> 68.2 µM
same,TGI,[39],> 100 µM
same,TGI,[40],36.3 µM
same,TGI,[41],19.4 µM
same,TGI,[42],> 57.7 µM
same,TGI,[43],> 100 µM
same,TGI,[44],5.57 µM
same,TGI,[45],> 51.9 µM
same,TGI,[46],26.7 µM
same,TGI,[47],33 µM
same,TGI,[48],27.6 µM
same,TGI,[49],> 93.2 µM
same,TGI,[50],35.4 µM
same,TGI,[51],19.3 µM
same,TGI,[52],> 35.6 µM
same,TGI,[53],> 100 µM
same,TGI,[54],> 100 µM
same,TGI,[55],66.4 µM
same,TGI,[56],18.4 µM
same,TGI,[57],32.3 µM
same,TGI,[58],> 100 µM
same,TGI,[59],26 µM
C=C1C(=O)O[C@H]2C1C[C@@H](O)/C(C)=C/CC[C@@]1(C)O[C@H]21 (stereo partly drawn),TGI,[1],> 100 µM
same,TGI,[2],21.5 µM
same,TGI,[3],> 54.8 µM
same,TGI,[4],37.4 µM
same,TGI,[5],38.9 µM
same,TGI,[6],15.1 µM
same,TGI,[7],9.27 µM
same,TGI,[8],> 82.7 µM
same,TGI,[9],> 50.9 µM
same,TGI,[10],> 56 µM
same,TGI,[11],50 µM
same,TGI,[12],12.6 µM
same,TGI,[13],> 95.6 µM
same,TGI,[14],26.5 µM
same,TGI,[15],> 49.6 µM
same,TGI,[16],44.8 µM
same,TGI,[17],> 68.5 µM
same,TGI,[18],16.9 µM
same,TGI,[19],49.1 µM
same,TGI,[20],> 53.8 µM
same,TGI,[21],> 100 µM
same,TGI,[22],> 44.5 µM
same,TGI,[23],12.5 µM
same,TGI,[24],> 53.2 µM
same,TGI,[25],> 96.4 µM
same,TGI,[26],22.9 µM
same,TGI,[27],44.9 µM
same,TGI,[28],35 µM
same,TGI,[29],> 36.9 µM
same,TGI,[30],> 57 µM
same,TGI,[31],22.3 µM
same,TGI,[32],> 54.2 µM
same,TGI,[33],17.9 µM
same,TGI,[34],> 49.3 µM
same,TGI,[35],33.7 µM
same,TGI,[36],26.6 µM
same,TGI,[37],> 91 µM
same,TGI,[38],31.9 µM
same,TGI,[39],23.7 µM
same,TGI,[40],63.1 µM
same,TGI,[41],54.3 µM
same,TGI,[42],25.8 µM
same,TGI,[43],> 89.5 µM
same,TGI,[44],> 87.9 µM
same,TGI,[45],37.7 µM
same,TGI,[46],> 48.2 µM
same,TGI,[47],45.1 µM
same,TGI,[48],46.8 µM
same,TGI,[49],58.8 µM
same,TGI,[50],34.7 µM
same,TGI,[51],> 43.8 µM
same,TGI,[52],> 100 µM
same,TGI,[53],> 100 µM
same,TGI,[54],28.8 µM
same,TGI,[55],33.4 µM
same,TGI,[56],23.6 µM
same,TGI,[57],> 43.4 µM
same,TGI,[58],> 52.6 µM
same,TGI,[59],> 55.9 µM
